These results are taken from PMC9260667, “Thioredoxin Reductase Inhibitors as Potential Antitumors: Mercury Compounds Efficacy in Glioma Cells” (Frontiers in Molecular Biosciences, 2022).

Format in all cases: cell-based, mouse
Test [1] relates to Prx2. The experiment in a line: Prx2 redox state (dimer/monomer, non-reducing Western blot). The settings on record: GL261, 1 and 2 μM, 24 h. As for the experimental part: To evaluate the Prx2 redox state, cells were lysed in lysis buffer containing NEM (N-ethylmaleimide; Sigma) and, subsequently, the soluble protein fraction was separated by non-reducing SDS-PAGE electrophoresis, followed by transfer to a nitrocellulose membrane, after blockage with milk and incubation with the respective antibodies–Prx2 mouse monoclonal IgG (sc-515428, Sta. Cruz) and goat anti-mouse IgG-HRP (sc-2005, Sta. Cruz)—as previously described ([Brown et al., 2008]). The ratio between the bands of the Prx2 dimer and monomer was quantified for each sample using the Bio-Rad Quantity One software.
Background: Immunoblotting shows a protein as a band on a membrane.

The subject of test [2] is GL261 cells. Description: ROS production (H2DCFDA assay). As to conditions: GL261, 3 h exposure, 0.5-5 µM. As for the experimental part: The assessment of general ROS production was based on the 2′,7′-dichlorodihydrofluorescein diacetate (H2DCFDA) assay ([Huang et al., 2014]).
Cells (8 × 10^4) were plated in black 96-well microplates and then incubated at 37°C for 24 h. Afterwards, the medium was removed, the cells were washed twice with PBS 1x, and culture media with DHCF-DA ([…]) was added to each well followed by a 40 min incubation at 37°C. After the incubation period, the DHCF-DA containing media was removed and the wells were washed twice with PBS 1x before being replenished with fresh medium. This was followed by exposure of cells to Hg compounds (EtHg and TmHg 0.5; 1, 2.5; and 5 µM) for 3 h using 1 mM H2O2 as a positive control. The fluorescence signal was read in a microplate reader (Zenyth 3100, Anthos Labtec Instruments) using 495 nm as the excitation wavelength and 529 nm as the emission wavelength.

Test [3] has as its system Trx1 and Trx2. Description: Trx oxidation state (Redox Western). As to conditions: GL261, 1 µM, 24 h. As for the experimental part:
The redox state of Trx1 and Trx2 was evaluated by the quantification of the number of reduced -SH groups (Free -SH), according to the Protein Electrophoretic Mobility Shift Assay ([Bersani et al., 2002]; [Branco et al., 2017]).
Briefly, after exposure to the TmHg and EtHg for 24 h, cell pellets were resuspended in Sample Solution (SS - Tris 50 mM, Urea 8 M, pH 8.3) containing 30 mM of iodoacetic acid (IAA; Sigma) and incubated at 37°C for 30 min to alkylate free thiols. This was followed by centrifugation at 13,000 g for 10 min, and the resulting supernatant was washed 3 times with an acetone/1 M HCl mix (98:2 v/v), followed by centrifugation at 13,000 g for 5 min. After evaporation of the acetone mixture, the resulting pellet was incubated at 37°C for 30 min in a SS solution containing 5 mM of DTT to reduce thiols oxidized by TmHg and EtHg. Posteriorly, these thiols were alkylated with SS containing 10 mM iodoacetamide (IAM; Sigma) at 37°C for 30 min.
Next, the samples were loaded onto a Urea-PAGE gel (stacking gel: 4% acrylamide; run gel: 12% acrylamide; 8 M Urea) and run at 10 mA. After 2 h, the proteins in the gel were transferred to a nitrocellulose membrane blocked with skimmed milk and incubated with respective antibodies - Trx1 rabbit polyclonal IgG (ATRX8, IMCO Corp.), Trx2 rabbit polyclonal IgG (sc-50335, Sta. Cruz) and mouse anti-rabbit IgG-HRP (sc-2357, Sta. Cruz). […]

In test [4] the test system is Caspase-3. The experiment in a line: Caspase-3 activity (DEVD-pNA assay) in lysates of exposed GL261 cells. As to conditions: GL261, 5 µM, 24 h. As for the experimental part: Caspase-3 activity was determined by measuring the enzymatic cleavage of chromophore p-nitroanilide (pNA) from the substrate N-acetyl-Asp-Glu-Val-Asp-pNA (DEVD-pNA) ([Borralho et al., 2007]).
This activity was determined based on a proteolytic reaction previously described ([Borralho et al., 2007]) with some modifications. In this assay total cell lysates were used, where cells were exposed to the TmHg and EtHg (1; 2 and 5 µM) for 24 h. This reaction was performed in an isolation buffer, containing 100 μg of cytosolic protein of cellular lysates, 50 μM of DTT, and […] of DEVD-pNA (Sigma-Aldrich). Next, the reaction mixtures were incubated at 37°C for 3 h. Finally, the pNa formation was measured at 405 nm using a microplate reader (Zenyth 3100, Anthos Labtec Instruments) ([Borralho et al., 2007]).

In the case of `C[CH2][Hg]` [EtHg, ethylmercury], the “increase in Prx2 dimerization relative to non-treated control” value in test [1] is 20–40%. In addition, in test [2], the ROS production result is recorded as “concentration-dependent increase”. Also, in test [3], the “redox states of Trx1 and Trx2” value is recorded as “increasing the oxidation of Cys residues in both isoforms”. The “increase of caspase-3 activity” value in test [4] is “up to 50%”.

With `C[CH2][Hg][S]c1ccccc1C(=O)[O-].[Na+]` [TmHg, thimerosal], the “increase in Prx2 dimerization relative to non-treated control” value in test [1] is reported as 20–40%. Further, the ROS production entry in test [2] was “concentration-dependent increase”. Moreover, in test [3], the “redox states of Trx1 and Trx2” value is given as “increasing the oxidation of Cys residues in both isoforms”. The “increase of caspase-3 activity” value in test [4] is given as “up to 50%”.
